Test results reported in patent publication US20210002725A1, “METHODS FOR THE DIAGNOSIS OF METABOLIC DISORDERS USING EPIMETABOLIC SHIFTERS, MULTIDIMENSIONAL INTRACELLULAR MOLECULES, OR ENVIRONMENTAL INFLUENCES” (Berg LLC, priority 2009, published 2021).

Experiments:
[1] = tested on: Lactate Dehydrogenase (LDH); assay: Western blot of Lactate Dehydrogenase levels in cells treated with Coenzyme Q10; assay type: cell-based, human; settings: HepG2, 5 g, 24 h, 50 μM
Procedure: The samples were processed and run on a 4-12% Bis-Tris Novex NuPAGE gel as described above. The gels were run, transferred and stained essentially as described above.
After transfer each blot was dried for 15-20 minutes, activated with methanol for 5 seconds, washed with water for 5 minutes, and TBST for 15 minutes. The blots were blocked for 1 hour with 5% blocking reagent in TBS-T at room temperature and then washed 3 times with TBS-T (1×-15′; 2×5′ each) and probed with the primary antibody for Lactate Dehydrogenase (abcam ab2101; polyclonal) in 5% BSA (at 1:1000 dilutions) by incubation overnight at 4 deg C. with shaking. After the overnight incubation with primary antibody for Lactate Dehydrogenase, the blots were washed 3 times with TBS-T (1×-15′; 2×5′ each) and probed with the secondary antibody (rabbit antigoat; 1:10,000 dilution) for 1 h at room temperature. After 1 h of incubation with secondary antibodies, the blots were washed 3 times with TBS-T (1×-15′; 2×5′ each) and then incubated with ECF reagent for 5 mins and then each blot scanned with 5100 Fuji Laser scanner at 25 uM resolution, 16 bit, green laser, at 400V and at 500 V. […]
The levels of LDH and PDH were determined by probing the blots successively with primary antibodies for LDH and PDH, essentially as described above. […]

Hif1 alpha = assay: Western blot of Hif1 alpha levels in cells treated with Coenzyme Q10; assay type: cell-based, human; settings: whole cell lysates of normal cells
Procedure: The Actin blots were stripped by incubating for 30 minutes with methanol, followed by two 10 minute washes with TBS-T, then 30 minutes of incubation with Stripping buffer at 50 deg C., and followed by two washes with 100 ml or more of TBS-T for 30′ each. The blots were scanned in laser scanner to check for complete stripping. The blots were activated with methanol for 5 seconds, washed with water for 5 minutes, and TBST for 15 minutes. The blots were blocked for 1 hour with 5% blocking reagent in TBS-T at room temperature and then washed 3 times with TBS-T (1×-15′; 2×5′ each) and probed with the primary antibody for Hif 1 alpha, Caspase 3 or PDHB in 5% BSA (at 1:200 by incubation overnight at 4 deg C. with gentle shaking. The primary antibody for Hif 1 alpha (Abcam ab2185; antirabbit) was at 1:500 dilution in 5% BSA. The primary antibody for Caspase 3 (Santacruz sc7272; antirabbit) was at 1:200 dilution in 5% BSA. The primary antibody for Pyruvate Dehydrogenase beta (PDHB) (Novus Biologicals H00005162-M03; antimouse) was at 1:500 dilution in 5% BSA. After incubation with primary antibodies, the membranes were washed 3 times with TBS-T (1×-15′; 2×5′ each) and probed with the secondary antibody (PDHB antimouse; Hif 1a and Caspase 3 antirabbit; 1:10,000 dilution) for 1 h at room temperature. […]

Question: COC1=C(OC)C(=O)C(C/C=C(\C)CC/C=C(\C)CC/C=C(\C)CC/C=C(\C)CC/C=C(\C)CC/C=C(\C)CC/C=C(\C)CC/C=C(\C)CC/C=C(\C)CCC=C(C)C)=C(C)C1=O [Q10, Coenzyme Q10] was tested. Which “Lactate Dehydrogenase Normalized Volume” value [1] did it give?
Answer: 7900

Question: And the Hif1a lower band (Hif1 alpha)?
Answer: showed a decrease
